The record followed here is PubChem BioAssay AID248 (DTP/NCI, 2004).

Where “and” joins values, the source holds several entries; their conditions need not be identical. Identical values can stand only once. Inconclusive results and toxic doses are left out.

The subject of the test is L1210 leukemia ip in BDF1 mice, survival T/C. In words: NCI In Vivo Anticancer Drug Screen. Data for tumor model L1210 Leukemia (intraperitoneal) in B6D2F1 (BDF1) mice. Particulars: endpoint: mean survival time, higher = longer survival. In short, it runs like this:
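Read-out is survival time, reported as the treated-group measurement over the vehicle-control measurement.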

The mark [1] stands for this setting: dose: 100.0 mg/kg/injection, schedule: Q04DX002 (ip), vehicle: Klucel (hydroxypropylcellulose) (HPC).
The mark [2] stands for this setting: dose: 200.0 mg/kg/injection, schedule: Q04DX002 (ip), vehicle: Klucel (hydroxypropylcellulose) (HPC).
[3] abbreviates: dose: 400.0 mg/kg/injection, schedule: Q04DX002 (ip), vehicle: Klucel (hydroxypropylcellulose) (HPC).
Setting [4] is: dose: 25.0 mg/kg/injection, schedule: Q01DX009 (ip), vehicle: Klucel (hydroxypropylcellulose) (HPC).
Where [5] appears, read: dose: 50.0 mg/kg/injection, schedule: Q01DX009 (ip), vehicle: Klucel (hydroxypropylcellulose) (HPC).
[6] abbreviates: dose: 100.0 mg/kg/injection, schedule: Q01DX009 (ip), vehicle: Klucel (hydroxypropylcellulose) (HPC).
[7] abbreviates: dose: 100.0 mg/kg/injection, schedule: Q04DX003 (ip), vehicle: Klucel (hydroxypropylcellulose) (HPC).
[8] abbreviates: dose: 200.0 mg/kg/injection, schedule: Q01DX009 (ip), vehicle: Klucel (hydroxypropylcellulose) (HPC).
The mark [9] stands for this setting: dose: 400.0 mg/kg/injection, schedule: Q01DX009 (ip), vehicle: Klucel (hydroxypropylcellulose) (HPC).
The mark [10] stands for this setting: dose: 100.0 mg/kg/injection, schedule: Q04DX003 (ip), vehicle: saline with Tween-80.
Where [11] appears, read: dose: 200.0 mg/kg/injection, schedule: Q04DX003 (ip), vehicle: saline with Tween-80.
Setting [12] is: dose: 400.0 mg/kg/injection, schedule: Q04DX003 (ip), vehicle: saline with Tween-80.
Setting [13] is: dose: 100.0 mg/kg/injection, schedule: Q01DX001 (ip), vehicle: saline.
[14] abbreviates: dose: 200.0 mg/kg/injection, schedule: Q01DX001 (ip), vehicle: saline.
Setting [15] is: dose: 400.0 mg/kg/injection, schedule: Q01DX001 (ip), vehicle: saline.
The mark [16] stands for this setting: dose: 200.0 mg/kg/injection, schedule: Q04DX003 (ip), vehicle: Klucel (hydroxypropylcellulose) (HPC).
The mark [17] stands for this setting: dose: 400.0 mg/kg/injection, schedule: Q04DX003 (ip), vehicle: Klucel (hydroxypropylcellulose) (HPC).

For `COC(=O)/C=C(\C)Nc1ccc(NC(C)=O)cc1`, the T/C runs as follows: (dose: 25.0 mg/kg/injection, schedule: Q01DX009 (ip), vehicle: acetone) 101 % of control; (dose: 50.0 mg/kg/injection, schedule: Q01DX009 (ip), vehicle: acetone) 101 % of control; (dose: 100.0 mg/kg/injection, schedule: Q01DX009 (ip), vehicle: acetone) 94 % of control; (dose: 100.0 mg/kg/injection, schedule: Q04DX003 (ip), vehicle: acetone) 94 % of control; (dose: 200.0 mg/kg/injection, schedule: Q04DX003 (ip), vehicle: acetone) 96 % of control.

Turning to `[Cl][Pd][Cl].[NH-]C(c1ccccc1)C([NH-])c1ccccc1` (stereo not drawn), the T/C is 93 % of control and 97 % of control under setting [1]; 90 % of control and 118 % of control under setting [2]; 88 % of control and 97 % of control under setting [3].

For the compound `c1coc(-c2ncnc3c2Cc2ccccc2-3)c1`, the T/C runs as follows: under setting [4], 96 % of control; (dose: 25.0 mg/kg/injection, schedule: Q04DX003 (ip), vehicle: Klucel (hydroxypropylcellulose) (HPC)) 98 % of control; under setting [5], 91 % of control; (dose: 50.0 mg/kg/injection, schedule: Q04DX003 (ip), vehicle: Klucel (hydroxypropylcellulose) (HPC)) 91 % of control; under setting [6], 102 % of control; under setting [7], 100 % of control.

With `COC(=O)c1cc(=O)c2cccc(C(=O)O)c2[nH]1`, the T/C under setting [5] was 109 % of control, the T/C under setting [6] is 98 % of control and the T/C under setting [8] was 102 % of control.

For `Cc1nc2c(=O)[nH]n(C)c2nc1C`, the T/C by setting is: (dose: 100.0 mg/kg/injection, schedule: Q01DX009 (ip), vehicle: saline with Tween-80) 97 % of control; (dose: 200.0 mg/kg/injection, schedule: Q01DX009 (ip), vehicle: saline with Tween-80) 95 % of control; (dose: 400.0 mg/kg/injection, schedule: Q01DX009 (ip), vehicle: saline with Tween-80) 95 % of control.

Take `CCOC1(CC)CN(Cc2ccccc2)CCO1` (stereo not drawn): the T/C by setting is: under setting [6], 103 % of control; under setting [8], 93 % of control; under setting [9], 98 % of control.

Regarding `O=C(NCCN1C(=O)C2C3CCC(O3)C2C1=O)Nc1ccc([N+](=O)[O-])cc1[N+](=O)[O-]` (stereo not drawn), the T/C reads like this: under setting [1], 108 % of control; under setting [2], 101 % of control; under setting [3], 108 % of control.

For `CC1=C2C3OC(=O)C(C)C3C=CC2(C)C(=O)CC1` (stereo not drawn), the T/C runs as follows: under setting [10], 87 % of control; under setting [11], 89 % of control; under setting [12], 89 % of control.

`Cn1c(=O)c2c(nc(OCC3CC4CCC3C4)n2C)n(C)c1=O` (stereo not drawn): the T/C was 96 % of control under setting [13], 108 % of control under setting [14] and 108 % of control under setting [15].

As to `CC(C)c1oc(=O)cc2c1C(O)C1OC(=O)C3(C)C(O)C4OC4C2(C)C13` (stereo not drawn), the T/C is 109 % of control under setting [4]; 116 % of control under setting [5]; 106 % of control and 88 % of control under setting [6].

As for `COc1ccc(NC(=O)Nc2ccc(C3=NCCCN3)cc2)cc1NC(=O)Nc1ccc(C2=NCCCN2)cc1`, the T/C runs as follows: (dose: 62.0 mg/kg/injection, schedule: Q01DX Z (ip), vehicle: carboxymethylcellulose (CMC)) 115 % of control; (dose: 62.0 mg/kg/injection, schedule: Q01DX Z (oral), vehicle: carboxymethylcellulose (CMC)) 104 % of control; (dose: 125.0 mg/kg/injection, schedule: Q01DX Z (oral), vehicle: carboxymethylcellulose (CMC)) 98 % of control; (dose: 250.0 mg/kg/injection, schedule: Q01DX Z (ip), vehicle: carboxymethylcellulose (CMC)) 150 % of control; (dose: 250.0 mg/kg/injection, schedule: Q01DX Z (oral), vehicle: carboxymethylcellulose (CMC)) 104 % of control; (dose: 500.0 mg/kg/injection, schedule: Q01DX Z (oral), vehicle: carboxymethylcellulose (CMC)) 100 % of control.

For `Cc1cnc2c(N)[nH]nc2n1`, the T/C under setting [7] is 106 % of control; the T/C under setting [8] was 104 % of control; the T/C under setting [16] was 96 % of control; the T/C under setting [9] was 100 % of control; the T/C under setting [17] is 102 % of control.

Take `O=C(/C=C/c1ccccc1)Nc1cc([N+](=O)[O-])ccc1O`: the T/C under setting [5] is 97 % of control; the T/C under setting [6] is 94 % of control and 87 % of control; the T/C under setting [8] was 94 % of control and 97 % of control; the T/C under setting [9] is 87 % of control.

Take `CCOC(=O)CCCNCCCC(=O)OCC`: the T/C was 97 % of control under setting [13], 103 % of control under setting [14] and 114 % of control under setting [15].

For the compound `CC(=O)Oc1ccc2c(c1)C1(C)CCCC(C)(C(=O)O)C1CC2` (stereo not drawn), the T/C is 92 % of control under setting [10], 97 % of control under setting [11] and 94 % of control under setting [12].

For the compound `Nc1ccc2c(c1)C(=O)c1ccccc1C2=O`, the T/C is 98 % of control (dose: 50.0 mg/kg/injection, schedule: Q01DX001 (ip), vehicle: saline); 102 % of control under setting [13]; 92 % of control (dose: 100.0 mg/kg/injection, schedule: Q01DX009 (ip), vehicle: saline); 100 % of control (dose: 100.0 mg/kg/injection, schedule: Q04DX002 (ip), vehicle: saline); 102 % of control under setting [14]; 92 % of control (dose: 200.0 mg/kg/injection, schedule: Q01DX009 (ip), vehicle: saline). The T/C was 93 % of control (dose: 200.0 mg/kg/injection, schedule: Q04DX002 (ip), vehicle: saline); 102 % of control under setting [15]; 92 % of control (dose: 400.0 mg/kg/injection, schedule: Q01DX009 (ip), vehicle: saline); 93 % of control (dose: 400.0 mg/kg/injection, schedule: Q04DX002 (ip), vehicle: saline).

On to `NC(=O)c1ccc[n+](CC(=O)NCc2ccc(Cl)cc2)c1`, for which the T/C (dose: 100.0 mg/kg/injection, schedule: Q04DX003 (ip), vehicle: saline) was 93 % of control.

With `Cc1cc(Cl)ccc1OC(=O)Nc1ccc(Cl)cc1`, the T/C was 103 % of control (dose: 100.0 mg/kg/injection, schedule: Q01DX001 (ip), vehicle: carboxymethylcellulose (CMC)); 95 % of control and 101 % of control (dose: 100.0 mg/kg/injection, schedule: Q01DX009 (ip), vehicle: carboxymethylcellulose (CMC)); 98 % of control under setting [1]; 96 % of control and 90 % of control (dose: 100.0 mg/kg/injection, schedule: Q04DX002 (ip), vehicle: carboxymethylcellulose (CMC)); 111 % of control (dose: 200.0 mg/kg/injection, schedule: Q01DX001 (ip), vehicle: carboxymethylcellulose (CMC)); 97 % of control and 111 % of control (dose: 200.0 mg/kg/injection, schedule: Q01DX009 (ip), vehicle: carboxymethylcellulose (CMC)). Also, the T/C by setting is: under setting [2], 92 % of control; (dose: 200.0 mg/kg/injection, schedule: Q04DX002 (ip), vehicle: carboxymethylcellulose (CMC)) 94 % of control and 97 % of control; (dose: 400.0 mg/kg/injection, schedule: Q01DX001 (ip), vehicle: carboxymethylcellulose (CMC)) 98 % of control; (dose: 400.0 mg/kg/injection, schedule: Q01DX009 (ip), vehicle: carboxymethylcellulose (CMC)) 97 % of control and 86 % of control; under setting [3], 106 % of control; (dose: 400.0 mg/kg/injection, schedule: Q04DX002 (ip), vehicle: carboxymethylcellulose (CMC)) 94 % of control and 90 % of control.

Take `CCCNC(=S)NNC(=O)c1ccncc1`: the T/C is 100 % of control (dose: 100.0 mg/kg/injection, schedule: Q04DX002 (ip), vehicle: saline with Tween-80) and 118 % of control (dose: 200.0 mg/kg/injection, schedule: Q04DX002 (ip), vehicle: saline with Tween-80).

As to `N#CC(CC(=O)c1ccc2c(c1)OCO2)c1ccc2c(c1)OCO2` (stereo not drawn), the T/C reads like this: under setting [6], 101 % of control; under setting [7], 95 % of control; under setting [8], 101 % of control; under setting [16], 98 % of control; under setting [9], 97 % of control; under setting [17], 101 % of control.

As to `CN(C)/C=C/C(=O)c1ccccc1[N+](=O)[O-]`, the T/C under setting [6] was 97 % of control; the T/C under setting [7] was 100 % of control; the T/C under setting [8] is 100 % of control; the T/C under setting [16] was 105 % of control; the T/C under setting [9] is 103 % of control; the T/C under setting [17] is 100 % of control.
